# Source: ChEMBL document CHEMBL4627257, “Targeting the DNA damage response (DDR) by natural compounds” (Bioorg Med Chem, 2020)
# The source made the active and inactive calls. The rule behind the calls is not given here.
# Tests used:
# SU.86.86 [1] = assay: Induction of DNA damage in human SU8686 cells assessed as increase in gammaH2AX phosphorylation at […] at cytotoxic IC50 incubated for 24 hrs by fluorometry method; type: functional
# SU.86.86 [2] = assay: Induction of DNA damage in human SU8686 cells assessed as increase in gammaH2AX phosphorylation at […] at cytotoxic IC50 in presence of 0.3 uM doxorubicin by fluorometry method; type: functional
# SU.86.86 [3] = assay: Induction of DNA damage in human SU8686 cells assessed as increase in gammaH2AX phosphorylation at […] at cytotoxic IC50 in presence of 5 uM cisplatin by fluorometry method; type: functional
# SU.86.86 [4] = assay: Induction of DNA damage in human SU8686 cells assessed as tail DNA formation at IC50 by alkaline Comet assay; type: functional, cell-based
# SU.86.86 [5] = assay: Induction of DNA damage in human SU8686 cells assessed as increase gammaH2AX protein level at IC50 for 24 hrs in presence of 5 uM cisplatin by western blot analysis; type: functional, cell-based
# SU.86.86 [6] = assay: Induction of DNA damage in human SU8686 cells assessed as increase gammaH2AX protein level at IC50 for 24 hrs in presence of 0.3 uM doxorubicin by western blot analysis; type: functional, cell-based
# SU.86.86 [7] = assay: Induction of DNA damage in human SU8686 cells assessed as increase in gammaH2AX nuclear foci under basal condition at IC50 by fluorometry method; type: functional, cell-based
# SU.86.86 [8] = assay: Induction of DNA damage in human SU8686 cells assessed as tail DNA formation at IC50 in presence of 5 uM cisplatin by alkaline Comet assay; type: functional, cell-based
# BXPC-3 = assay: Cytotoxicity against human BxPC3 cells assessed as cell viability after 72 hrs incubated with resazurin sodium salt by Alamar blue assay; type: functional
# SU.86.86 [9] = assay: Cytotoxicity against human SU8686 cells assessed as cell viability after 72 hrs incubated with resazurin sodium salt by Alamar blue assay; type: functional
# SU.86.86 [10] = assay: Induction of DNA damage in human SU8686 cells assessed as increase gammaH2AX protein level at IC50 for 24 hrs by western blot analysis; type: functional, cell-based
smiles,measurement,setting,value
C=C1[C@@H](C)[C@H]2[C@H](Cc3ccccc3)NC(=O)[C@]23[C@H](OC(C)=O)/C=C\[C@@H](C)C[C@@H](C)C/C=C\[C@H]3[C@@H]1O,Activity,SU.86.86 [1],>=30%
CC[C@H](C)C1C(=O)O[C@H](C(C)C)C(=O)N(C)[C@@H]([C@@H](C)CC)C(=O)O[C@H](C(C)C)C(=O)N(C)[C@@H](C(C)C)C(=O)O[C@H](C(C)C)C(=O)N1C (some centres not stated),Activity,SU.86.86 [2],>20%
C=C[C@@](C)(/C=C/c1ccc(O)cc1)CCC=C(C)C [BAKUCHIOL],Activity,SU.86.86 [2],>20%
O=C1C[C@@H](c2ccccc2)Oc2cc(O)cc(O)c21 [PINOCEMBRIN],Activity,SU.86.86 [1],>30%
COC(=O)c1cc(O)cc(OC)c1C(=O)c1c(O)c(Cl)c(C)c(Cl)c1O [DIHYDROGEODIN],Activity,SU.86.86 [2],>20%
Cc1cc(O)cc2c1Oc1cc(O)cc(C)c1C(=O)O2,Activity,SU.86.86 [3],>20%
same,Activity,SU.86.86 [2],>20%
C[C@H]1CCC/C=C\C(=O)Cc2cc(O)cc(O)c2C(=O)O1,Activity,SU.86.86 [1],>30%
Cc1cc(O)c2c(c1)C(=O)c1c(c(O)cc(O)c1-c1c(O)cc(O)c3c1C(=O)c1cc(C)cc(O)c1C3=O)C2=O [SKYRIN],Activity,SU.86.86 [2],>20%
CC1=CCC[C@H]2[C@](C)(Cc3cc(O)ccc3O)[C@@H](C)CC[C@]12C [AVAROL],Activity,SU.86.86 [2],>20%
COC1=C(Br)[C@@H](O)[C@]2(C=C1Br)CC(C(=O)NC[C@@H](O)c1cc(Br)c(OC[C@@H](O)CNC(=O)C3=NO[C@]4(C=C(Br)C(OC)=C(Br)[C@@H]4O)C3)c(Br)c1)=NO2,Activity,SU.86.86 [2],>20%
CCCCCC[C@H](C)/C=C(C)/C=C/C(=O)N[C@@H]1C[C@@]2(O[C@@H]1O)[C@@H]1O[C@@H]1C(=O)[C@@H]1O[C@@H]12,Activity,SU.86.86 [2],>20%
C=CC(C)(C)[C@@]12C[C@H]3C(=O)N/C(=C/c4c[nH]cn4)C(=O)N3[C@@H]1Nc1ccccc12 [ROQUEFORTINE C],Activity,SU.86.86 [2],>20%
CN1C(=O)NC(CCCNC(=O)c2cc(Br)c(Br)n2C)C1=O (configuration not stated) [MIDPACAMIDE],Activity,SU.86.86 [2],>20%
C=C1CCC[C@H]2[C@](C)(CC3=C(O)C(=O)C=C(N[C@@H](CO)C(=O)O)C3=O)[C@@H](C)CC[C@]12C,Activity,SU.86.86 [1],>30%
COC1=C(Br)[C@H](O)[C@@]2(C=C1Br)CC(C(=O)NCCCCNC(=O)C1=NO[C@]3(C=C(Br)C(OC)=C(Br)[C@@H]3O)C1)=NO2 [AEROTHIONIN],Activity,SU.86.86 [2],>20%
COC(=O)C[C@@H]1Cc2cc3c(-c4c(OC)cc(O)c5c(O)c6c(cc45)C[C@@H](CC(=O)OC)OC6=O)c(OC)cc(O)c3c(O)c2C(=O)O1,Activity,SU.86.86 [4],Active
same,Activity,SU.86.86 [5],Active
same,Activity,SU.86.86 [6],Active
same,Activity,SU.86.86 [7],Active
COc1cc(O)c2c(=O)oc3cc(O)cc(C)c3c2c1,Activity,SU.86.86 [2],>20%
Oc1cccc2c1[nH]c1c(C3=C[C@@]4(O)CC/C=C\CCCCN5CC[C@@H]3[C@]3(C[C@@H]6/C=C\CCCCN6[C@H]34)C5)nccc12,Activity,SU.86.86 [3],>20%
same,Activity,SU.86.86 [2],>20%
O=C1c2cccc(O)c2C(=O)c2c(O)cc(CO)cc21 [ALOE-EMODIN],Activity,SU.86.86 [2],>20%
CCOC(=O)c1cc(Br)c(Br)[nH]1,Activity,SU.86.86 [2],>20%
COc1ccc(CC#N)c(O)c1,Activity,SU.86.86 [2],>20%
C/C=C1\NC(=O)[C@H](Cc2ccccc2)NC(=O)[C@@H](C(C)C)NC(=O)[C@H]([C@@H](C)CC)NC(=O)[C@H](NC(=O)[C@H](NC(=O)[C@H](CCCN)NC(=O)[C@H]2CCCN2C(=O)[C@H](NC(=O)[C@@H](NC(=O)[C@H](NC(=O)[C@H](NC(=O)CCCC(C)C)C(C)C)[C@@H](C)O)C(C)C)C(C)C)[C@@H](C)CC)C(C)OC(=O)[C@H](C(C)C)NC1=O (some centres not stated),Activity,SU.86.86 [3],>20%
CCCc1cc(OC)cc(O)c1C(=O)Oc1c(OC)cc(CCC)c(C(=O)O)c1O,Activity,SU.86.86 [3],>20%
CC1=CCC[C@H]2[C@](C)(CC3=CC(=O)C=CC3=O)[C@@H](C)CC[C@]12C [AVARONE],Activity,SU.86.86 [3],>20%
same,Activity,SU.86.86 [2],>20%
CCCCCC(N)=O,Activity,SU.86.86 [1],>30%
same,Activity,SU.86.86 [2],>20%
CC(C)=CCC[C@@H](C)c1ccc(C)c(O)c1 [XANTHORRIZOL],Activity,SU.86.86 [2],>20%
COc1cc(O)c2c(c1)C(=O)C1=C(C2=O)[C@H](O)[C@@H](O)[C@@](C)(O)[C@@H]1O [ALTERSOLANOL A],Activity,SU.86.86 [3],>20%
same,Activity,SU.86.86 [2],>20%
O=c1cc(CO)occ1O [KOJIC ACID],Activity,SU.86.86 [2],>20%
COc1cc(O)c2c(c1)C(=O)c1cc(C)c(O)cc1C2=O [MACROSPORIN],Activity,SU.86.86 [2],>20%
CC(C)=CCC/C(C)=C/CC/C(C)=C/CC/C(C)=C/CC/C(C)=C/CC/C(C)=C/Cc1cc(O)ccc1O,Activity,SU.86.86 [4],Active
same,Activity,SU.86.86 [7],Active
CC(=O)c1c(O)cc(O)cc1C[C@@H]1Cc2cc(O)cc(O)c2C(=O)O1,Activity,SU.86.86 [1],>30%
CC(C)=CCc1cc(-c2coc3cc(O)ccc3c2=O)ccc1O [NEOBAVAISOFLAVONE],Activity,SU.86.86 [3],>20%
same,Activity,SU.86.86 [2],>20%
O=c1[nH]c2ccccc2c(-c2ccccc2)c1O,Activity,SU.86.86 [2],>20%
CCCCC/C=C/C(=O)[C@H]1C(=O)O[C@@]2(C)C(=O)C(C=O)=C3C=C(C)OC=C3[C@H]12,Activity,SU.86.86 [1],>30%
same,Activity,SU.86.86 [4],Active
same,Activity,SU.86.86 [5],Active
CCCCCc1cc(OC)c(OC(=O)c2c(O)cc(OC)cc2CCC)c(O)c1C(=O)O,Activity,SU.86.86 [2],>20%
CC1=C(CC/C(C)=C/CC/C(C)=C/CCC2=CC(=O)OC2O)C(C)(C)CCC1 (configuration not stated) [LUFFARIELLOLIDE],Activity,SU.86.86 [3],>20%
same,Activity,SU.86.86 [2],>20%
COC1=C(Br)[C@H](O)[C@](O)(CC#N)C=C1Br,Activity,SU.86.86 [2],>20%
Oc1c(Br)cc(Br)cc1Oc1ccc(Br)cc1Br,Activity,SU.86.86 [3],>20%
same,Activity,SU.86.86 [2],>20%
O=C1C[C@H](O)[C@H]2c3ccc(O)c4c3[C@H](c3ccc(O)c1c32)[C@@H](O)CC4=O,Activity,SU.86.86 [3],>20%
CC(C)[C@@H]1OC(=O)[C@@H](Cc2ccc(O)cc2)N(C)C(=O)[C@H](C(C)C)OC(=O)[C@@H](Cc2ccccc2)N(C)C(=O)[C@H](C(C)C)OC(=O)[C@@H](Cc2ccccc2)N(C)C1=O,Activity,SU.86.86 [1],>30%
same,Activity,SU.86.86 [8],Active
same,Activity,SU.86.86 [4],Active
same,Activity,SU.86.86 [5],Active
COC(=O)[C@@]12Oc3ccc(-c4ccc5c(c4O)C(=O)C4=C(O)C[C@H](C)[C@H](O)[C@]4(C(=O)OC)O5)c(O)c3C(=O)C1=C(O)C[C@H](C)[C@H]2O,Activity,SU.86.86 [1],>30%
same,Activity,BXPC-3,2.5 µM
same,Activity,SU.86.86 [9],3 µM
same,Activity,SU.86.86 [3],>20%
same,Activity,SU.86.86 [2],>20%
same,Activity,SU.86.86 [4],Active
same,Activity,SU.86.86 [5],Active
same,Activity,SU.86.86 [7],Active
COC(=O)/C=C/Oc1ccc(OC)cc1,Activity,SU.86.86 [2],>20%
C/C=C(\C)[C@H]1[C@@H](/C=C/C=C(\C)[C@@H](O)[C@@H](C)CO)[C@@H]2C[C@@H](OC(=O)Cc3ccccc3)[C@](C)(O)C[C@H]2[C@@H]2O[C@@]21C,Activity,SU.86.86 [2],>20%
same,Activity,SU.86.86 [4],Active
same,Activity,SU.86.86 [7],Active
CC[C@H](C)[C@H]1C(=O)N[C@@H](Cc2ccc(OCC=C(C)C)cc2)C(=O)N(C)[C@@H](C)C(=O)O[C@@H](Cc2ccccc2)C(=O)N2CCC[C@H]2C(=O)N[C@H](C(=O)O)C(=O)N1C,Activity,SU.86.86 [2],>20%
COc1cc(C[C@H]2COC(=O)[C@@H]2Cc2ccc(O)c(OC)c2)ccc1O [MATAIRESINOL],Activity,SU.86.86 [2],>20%
CC(C)[C@H]1OC(=O)[C@H](Cc2ccccc2)N(C)C(=O)[C@@H](C(C)C)OC(=O)[C@H](Cc2ccccc2)N(C)C(=O)[C@@H](C(C)C)OC(=O)[C@H](Cc2ccccc2)N(C)C1=O,Activity,SU.86.86 [4],Active
same,Activity,SU.86.86 [5],Active
same,Activity,SU.86.86 [7],Active
CC(C)=CCc1cc(C(=O)/C=C/c2ccc(O)cc2)c(O)cc1O [BROUSSOCHALCONE B],Activity,SU.86.86 [1],>30%
same,Activity,SU.86.86 [2],>20%
[O-][n+]1ccc2c([nH]c3ccccc32)c1C1=C[C@@]2(O)CC/C=C\CCCCN3CC[C@@H]1[C@]1(CC/C=C\CCCCN[C@H]12)C3,Activity,SU.86.86 [2],>20%
COC(C)CCOC(=O)c1cc(O)c(O)c(O)c1 (configuration not stated),Activity,SU.86.86 [1],>30%
CC[C@H](C)[C@H](NC(=O)[C@H](Cc1ccccc1)NC(=O)[C@H](CC(C)C)NC(=O)[C@@H]1CCCN1C(=O)/C1=C/N[C@@H](C(C)C)C(=O)N2CCC[C@H]2C(=O)N[C@@H](C(C)C)C(=O)N[C@@H](Cc2ccccc2)C(=O)N2CCC[C@H]2C(=O)N1)C(N)=O,Activity,SU.86.86 [1],>30%
C=C1CCC[C@H]2[C@](C)(CC3=C(O)C(=O)C=C(OC)C3=O)[C@@H](C)CC[C@@]12C,Activity,SU.86.86 [1],>30%
same,Activity,SU.86.86 [3],>20%
same,Activity,SU.86.86 [2],>20%
same,Activity,SU.86.86 [10],Active
same,Activity,SU.86.86 [4],Active
same,Activity,SU.86.86 [5],Active
same,Activity,SU.86.86 [6],Active
same,Activity,SU.86.86 [7],Active
C=C1CC[C@@H]2C(C)(C)CCC[C@@]2(C)[C@@H]1CC/C(C)=C/Cn1c[n+](C)c2ncnc(NO)c21,Activity,SU.86.86 [3],>20%
O=C1CCCN2[C@@H](CC1)C[C@]13CN4CCCC/C=C\CC[C@](O)(C=C(c5nccc6c5[nH]c5c(O)cccc56)[C@@H]1CC4)[C@H]23,Activity,SU.86.86 [3],>20%
same,Activity,SU.86.86 [2],>20%
Cc1cc(O)cc2c1Oc1cc(O)c(O)c(C)c1C(=O)O2,Activity,SU.86.86 [1],>30%
COC1=CC(=O)[C@]2(C=C1OC)OC[C@H]1Oc3c4c(cc(O)c3C(=O)[C@H]12)OC(C)(C)C=C4,Activity,SU.86.86 [1],>30%
